Bridge positions count the residues as written; N and C are the ends. Square brackets hold non-standard residues; d marks the D form. Peptide text beside a SMILES is read from it. * marks the point of attachment. NOTA = O=C(O)CN1CCN(CC(=O)O)CCN(CC(=O)*)CC1; 2Nal = N[C@@H](Cc1ccc2ccccc2c1)C(=O)O; Pen = CC(C)(S)[C@H](N)C(=O)O; 4Amb = NCc1ccc(C(=O)O)cc1; Ahx = NCCCCCC(=O)O
What was measured:
[1] = biological target: T1, recombinant CXCR4 protein (Homo sapiens, UniProt P61073); experiment: Biolayer interferometry (BLI) binding assay; settings: BLI Octet Red96, biotinylated CXCR4 on SSA biosensors, 30 °C, HBS-P buffer pH 7.4, 0.0313-1 μM, 1:1 binding model, global fit
T1 construct: purchased Novoprotein C16M
Procedure: The in vitro and in vivo stability of [^18F]AlF-NOTA-QHY-04 were evaluated by radio-HPLC to examine the RCP after different incubation periods. The binding affinity of the unlabeled precursor to CXCR4 was measured using the biolayer interferometry Octet Red96 system (PALL ForteBio, USA). The details are supplied in the supplemental materials. […]
human serum albumin solution were evaluated by radio-HPLC to examine the radiochemical purity after different incubation periods. For the saline study, 200 μL of [18F]AlF-NOTA-QHY-04 (0.74–3.70 MBq) was incubated at 37°C with 800 μL of saline for 1 h, 3 h and 6 h respectively, and then directly evaluated by radio -HPLC. […] Finally, the supernatant was collected and passed through a 0.22 μm membrane filter (Millipore, USA) and analyzed by radio-HPLC. […]
The processed blood supernatants and diluted urine samples were collected and passed through a 0.22 μm membrane filter (Millipore, USA) and analyzed by radio-HPLC. […]
and 1 μM NOTA-QHY-04 sample) was prepared and flowed. […] Prior to fitting, the data were baseline-subtracted and analyzed using a 1:1 binding model and the ForteBio data analysis software. Mean Kd value was determined by applying a global fit to all the data. […]

[2] = [18F]FDG PET/CT imaging in cancer patients; type: in vivo, human
Excerpt: Potential eligible patients with newly diagnosed tumor were recruited from Shandong Cancer Hospital and institute from November 2022 to December 2023. A total of 55 patients including 8 tumor types were represented in this study (diffuse large B-cell lymphoma (DLBCL), n = 6; SCLC, n = 30; non-small cell lung cancer (NSCLC), n = 4; triple-negative breast cancer (TNBC), n = 3; pancreatic carcinoma, n = 3; glioma, n = 7; hepatocellular carcinoma (HCC), n = 1; and colorectal carcinoma (CRC), n = 1). The [^18F]AlF-NOTA-QHY-04 imaging study in patients was approved by the Institutional Review Board of Shandong Cancer Hospital and Institute (no. SDZLEC2023-256-02), and the patients provided their informed consent before inclusion in this study. In this prospective observational study, [^18F]AlF-NOTA-QHY-04 PET/CT scans should not affect the normal process of routine examinations and treatment as usual. Patients were enrolled according to the following criteria: (1) newly diagnosed cancer patients with visible tumors on conventional imaging; (2) histopathologically confirmed diagnosis; (3) age ≥ 18 years; (4) Eastern Cooperative Oncology Group (ECOG) performance status score of 0-2; (5) no prior cancer-directed therapy; (6) ability to undergo [^18F]AlF-NOTA-QHY-04 PET/CT scanning before treatment initiation. Specifically, regarding histological confirmation, we followed the standard clinical practice guidelines for each type of cancer [21]-[26], and provided detailed descriptions of our approach for obtaining histological evidence in the supplemental materials. All patients included in this study were treatment-naïve at the time of [^18F]AlF-NOTA-QHY-04 PET/CT imaging, to ensure that CXCR4 expression levels were not altered by treatments. PET/CT scans were performed within one week of pathological confirmation and carefully coordinated with the patient's clinical teams to avoid any delays in the initiation of treatment. Seven patients from them also underwent [^18F]FDG PET/CT scan. These patients fasted for at least 6 hours before [^18F]FDG PET/CT imaging. The methods for PET/CT scanning and image analysis were the same as previously reported, and detailed in the supplemental materials.
pathologists following standard diagnostic criteria, including routine H&E staining and
relevant immunohistochemical analyses. Histological confirmation was completed before
patients underwent [18F]AlF-NOTA-QHY-04 PET/CT imaging to ensure an accurate
correlation between imaging findings and tumor characteristics.
All the PET/CT scans in patients were acquired through an integrated in -line PET/CT
system (GEMINI TF Big Bore, Philips Healthcare, USA) at 60 min after intravenous
administration of 4.81 MBq/kg [18F]AlF-NOTA-QHY-04 or [18F]FDG. The
medical information system (Beijing Mozi Healthcare Technology Co., Ltd., Beijing,
China). ROIs were drawn on the transaxial images , and the maximum, mean, and peak
standard uptake value (SUV max, SUVmean, SUVpeak) were calculated automatically and used
for measuring the uptake of [18F]AlF-NOTA-QHY-04 by malignant tissues. In PET imaging
of brain tumors, T/N (tumor-to-normal brain ratio) was calculated according to the ratio of
SUVmax of tumor to SUVmean of the contralateral normal brain tissue. Two experienced
nuclear medicine physicians unaware of the patients’ clinical history analyzed the PET/CT
data first independently and then in consensus . […]
For mIF staining, the FFPE sections were baked for 2 h at 60 °C and then
deparaffinized with xylene and rehydrated through decreasing gradient ethanol. Antigen
retrieval was performed in AR6 buffer (Akoya Biosciences) in a microwave oven for 15

[3] = 10 lesions of DLBCL patient No. 32

T1 sequence (P61073 1-39 limits assumed): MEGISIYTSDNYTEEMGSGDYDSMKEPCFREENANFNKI

Row | Kd [1] [nM] | SUVmax [2, 3] | SUVmean [2, 3] | average T/N (tumor-to-normal brain ratio) ([2]; SUVmax of tumor / SUVmean of contralateral normal brain, three PCNS DLBCL and one low-grade glioma patient) | SUVmax ([2]; bone metastasis of NSCLC patient No. 35) | SUVmax ([2]; inguinal lymph node of DLBCL patient No. 32) | SUVmax ([2]; lymph node metastasis of NSCLC patient No. 35) | SUVmax ([2]; primary lesion of NSCLC patient No. 35) | average SUVmax ([2]; three PCNS DLBCL patients and one low-grade glioma patient imaged with both tracers) | Structure (SMILES)
1 | 55.2 ± 11.3 |  |  |  |  |  |  |  |  | C[C@H](NC(=O)[C@H](CCCNC(=N)N)NC(=O)CCCCCNC(=O)c1ccc(CNC(=O)CN2CCN(CC(=O)O)CCN(CC(=O)O)CC2)cc1)C(=O)N[C@@H]1CSSC(C)(C)[C@@H](C(=O)O)NC(=O)[C@H](Cc2c[nH]cn2)NC(=O)[C@H](Cc2ccc3ccccc3c2)NC(=O)[C@H](CCCNC(=N)N)NC1=O [NOTA-QHY-04] ({NOTA-4Amb-Ahx}-RA[dC]R[2Nal]H[Pen]-OH; disulfide 3-7)
2 |  | 8.00 ± 4.57 | 4.39 ± 2.36 | 1.70 ± 0.25 | 4.1 | 2.17 | 4.26 | 5.23 | 12.12 ± 2.03 | OC[C@H]1OC(O)[C@H]([18F])[C@@H](O)[C@@H]1O (stereo partly shown) [[^18F]FDG]
3 | 41.3 ± 5.5 |  |  |  |  |  |  |  |  | C[C@H](NC(=O)[C@H](CCCNC(=N)N)NC(=O)CCCCCNC(=O)c1ccc(CNC(=O)CN2CCN(CC(=O)O)CCN(CC(=O)O)CC2)cc1)C(=O)N[C@@H]1CSSC(C)(C)[C@@H](C(=O)O)NC(=O)[C@H](Cc2c[nH]cn2)NC(=O)[C@H](Cc2ccc3ccccc3c2)NC(=O)[C@H](CCCNC(=N)N)NC1=O [[^natF]AlF-NOTA-QHY-04] ({NOTA-4Amb-Ahx}-RA[dC]R[2Nal]H[Pen]-OH; disulfide 3-7)

Reference: publication PMC11488100, “PET imaging of CXCR4 expression using [^18F]AlF-NOTA-QHY-04 for hematologic malignancy and solid tumors” (Theranostics, 2024)
